{"source": "paper PMC12312563", "about": "“Structures of Listeria monocytogenes MenD in ThDP-bound and in-crystallo captured intermediate I-bound forms” (Acta Crystallographica Section F: Structural Biology …, 2025)", "molecules": {"B1": {"name": "Listeria monocytogenes MenD (2-succinyl-5-enolpyruvyl-6-hydroxy-3-cyclohexene-1-carboxylate (SEPHCHC) synthase) (enzyme, Listeria monocytogenes (strain 10403s))", "chain": "GAMVTNHEQVLTDYLAAFIEELVQAGVKEAIISPGSRSTPLALMMAEHPILKIYVDVDERSAGFFALGLAKASKRPVVLLCTSGTAAANYFPAVAEANLSQIPLIVLTADRPHELRNVGAPQAMDQLHLYGSHVKDFTDMALPENSEEMLRYAKWHGSRAVDIAMKTPRGPVHLNFPLREPLVPILEPSPFTATGKKHHHVHIYYTHEVLDDSSIQKMVTECTGKKGVFVVGPIDKKELEQPMVDLAKKLGWPILADPLSGLRSYGALDEVVIDQYDAFLKEAEILDKLTPEVVIRFGSMPVSKPLKNWLEQLSDIRFYVVDPGAAWKDPIKAVTDMIHCDERFLLDIMQQNMPDDAKDAAWLSRWTSYNKVAREIVLAEMANTTILEEGKIVAELRRLLPDKAGLFIGNSMPIRDVDTYFSQIDKKIKMLANRGANGIDGVVSSALGASVVFQPMFLLIGDLSFYHDMNGLLMAKKYKMNLTIVIVNNDGGGIFSFLPQANEPKYFESLFGTSTELDFRFAAAFYDADYHEAKSVDELEEAIDKASYHKGLDIIEVKTNRHENKANHQALWAKIADALKALN", "notes": "MenD, Listeria monocytogenes strain 10403s, menD gene cloned from genomic DNA with printed primers that run from the start to the stop codon; Untagged protein after rTEV cleavage; The forward primer reads ATG GTG ACA..., so the MV at the start may hold one residue more than the natural protein (surmised from the residue numbering); also called LmoMenD; source: E. coli BL21 (DE3), purified …"}}, "key": {"[1]": {"target": "T1, LmoMenD (2-succinyl-5-enolpyruvyl-6-hydroxy-3-cyclohexene-1-carboxylate synthase, SEPHCHC synthase) (Listeria monocytogenes, UniProt A0A0H3GD77)", "T1 sequence (A0A0H3GD77 1-580)": "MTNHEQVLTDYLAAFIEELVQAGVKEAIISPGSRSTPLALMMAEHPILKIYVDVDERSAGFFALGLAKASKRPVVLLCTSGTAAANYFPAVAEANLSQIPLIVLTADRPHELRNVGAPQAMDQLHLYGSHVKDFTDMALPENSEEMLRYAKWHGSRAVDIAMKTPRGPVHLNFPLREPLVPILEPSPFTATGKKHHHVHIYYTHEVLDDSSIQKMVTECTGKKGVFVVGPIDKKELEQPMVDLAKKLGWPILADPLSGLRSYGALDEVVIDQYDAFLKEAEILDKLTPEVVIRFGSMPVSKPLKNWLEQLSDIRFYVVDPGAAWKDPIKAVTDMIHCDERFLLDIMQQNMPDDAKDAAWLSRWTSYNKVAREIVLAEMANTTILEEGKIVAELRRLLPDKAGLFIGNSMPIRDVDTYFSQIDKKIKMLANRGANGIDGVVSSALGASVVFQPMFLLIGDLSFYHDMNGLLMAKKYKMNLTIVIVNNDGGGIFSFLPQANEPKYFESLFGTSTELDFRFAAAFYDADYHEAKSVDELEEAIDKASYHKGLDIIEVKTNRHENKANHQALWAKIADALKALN", "set-up": "gene menD"}, "[2]": {"target": "T1, LmoMenD (2-succinyl-5-enolpyruvyl-6-hydroxy-3-cyclohexene-1-carboxylate synthase, SEPHCHC synthase)", "assay": "UV/Vis assay of isochorismate consumption; […] decrease of activity at […]", "type": "biochemical", "set-up": "gene menD; full-length LmoMenD, strain 10403s, tag removed by TEV cleavage"}, "[3]": {"target": "the molecule itself", "assay": "crystal structure; LmoMenD with ThDP and Mg2+ (PDB 9e9b) or with intermediate I after a 2-oxoglutarate soak (PDB 9mnn); space group P6(4)22, one molecule in the asymmetric unit, tetramer by crystallographic symmetry; PISA analysis of assemblies"}}, "data": [{"molecule": "O=C(O)CCC(=O)C(=O)O", "note": "[2-oxoglutarate]", "values": [{"measurement": "UV/Vis enzyme kinetics (Km, value in supplement); turned over in crystallo to in", "setting": "[1]", "value": "the Km values for ThDP, 2-oxoglutarate and isochorismate and kcat were determined"}]}, {"molecule": "O=C(O)c1cc(O)c2ccccc2c1O", "note": "[DHNA, 1,4-dihydroxy-2-naphthoic acid]", "values": [{"measurement": "inhibition at 12.5 µM", "setting": "[2]", "value": 34, "unit": "%"}]}, {"molecule": "B1", "values": [{"measurement": "stoichiometry N", "setting": "[3]", "value": 4}]}]}
